In the case of `COc1ccc2c(c1)sc1nc(Nc3ccccc3)nc(=Nc3ccccc3)n12`, the melting point is reported as 213 to 214 °C.
Molecule `CCCCCCCCCCC=NNC(=N)N` has a melting point of 101 °C.
Molecule `CC(C)(C)Cc1cc(C2(N)CC2)no1` has a melting point of 39 to 47 °C.
`CC(C)(CNC(=O)CCCC(=O)O)SN=O` gave a melting point of 104 to 107 °C.
Work on `NS(=O)(=O)c1cc(NC(=O)c2cnn3c(C(F)F)cc(-c4ccc(C(F)(F)F)cc4)nc23)c(Cl)s1` yielded a melting point of 298 °C.
Molecule `COc1cc2c(cc1OC)C(N1CCN(c3ccc4c(c3)CCC(=O)N4)CC1)=NCC2` has a melting point of 70 to 75 °C.
`Oc1cc(C(F)(F)F)nc2cc(C(F)(F)F)ccc12` gave a melting point of 184 to 185 °C.
For `CCC(=O)NS(=O)(=O)c1ccc(C(=O)C=Cc2cc(-c3cc4ccccc4[nH]3)c(OC)cc2OC)cc1`, the melting point was 223 to 225 °C.
`O=C(O)c1ccc(-c2coc(-c3ccc(C(F)(F)F)cc3)n2)cc1` showed a melting point of 294 to 295 °C.
`Nc1cc(C(c2cc(F)ccc2F)S(=O)(=O)c2ccc(Cl)nc2)c(Cl)cn1` (stereo not given) gave a melting point of 157 to 158 °C.
`CC(C)CN(CC(C)C)C(=O)c1c(N)cccc1N` showed a melting point of 76 to 77 °C.
`CSC(C)(C(=O)O)c1cccc(C2(c3ccccc3)OCCO2)c1` (stereo not given) showed a melting point of 118 to 120 °C.
`S=C(Nc1cccc(Cl)c1)N1CCSC1=Nc1cccc(Cl)c1` showed a melting point of 121 to 123 °C.
`COc1ccc(S(=O)(=O)Nc2ccccc2NC(=O)c2ccccc2)cc1` showed a melting point of 167 to 168 °C.
`Cn1ccc2ccc(/C=C/CN3CCN(C4c5ccccc5CCc5ncccc54)CC3)cc21` (stereo not given) gave a melting point of 168 to 170 °C.
Molecule `COC(=O)Cn1c(C(=O)Nc2nc(-c3cc(OC)c(Cl)cc3OC)c(CCC3CCCCC3)s2)c(C)c2cc(C)ccc21` has a melting point of 166 to 168 °C.
In the case of `COc1cc(/C=C/C(=O)/C=C/c2ccc(OC(F)(F)F)cc2)ccc1O`, the melting point is reported as 93 to 95 °C.
With `CC(=O)OC1CSC(Oc2cncc(-c3c(F)cc(F)cc3F)c2)C(OC(C)=O)C1OC(C)=O` (stereo not given) the melting point was 143 °C.
Molecule `CCOC(=O)c1ccc(CCC(=O)CO)cc1` has a melting point of 51 to 52 °C.
Work on `CCCNC(=O)c1c(Cl)cccc1OC(C)(CC)CC` yielded a melting point of 100 to 102 °C.
`O=C(Nc1ccc(Cl)c(C(F)(F)F)c1)Nc1ccccc1P(=O)(O)O` showed a melting point of 153 to 157 °C.
Molecule `CCNC(=O)c1cccc(-c2cccc3cc(Cc4cccc(C(F)(F)F)c4)sc23)c1` has a melting point of 122 to 123 °C.
Work on `O=C(CCCCNCCOc1cccc2cccnc12)NC1CCCCC1` yielded a melting point of 113 to 119 °C.
Molecule `CCC(CC)Nc1ccc2c(c1)N1CCCN=C1S2` has a melting point of 114 °C.
`Cc1ccc(S(=O)(=O)n2c(Br)cc(-c3ccc(F)cc3)c2-c2ccc(S(C)(=O)=O)cc2)cc1` gave a melting point of 207 to 208 °C.
For `O=C(Nc1cccnc1)N1CCN(c2cc(-c3cccc(F)c3F)ncn2)CC1`, the melting point was 179 to 180 °C.
With `CCN1C(=O)C(=O)N(c2ccc(Cl)cc2C)C1=S` the melting point was 161 to 162 °C.
Molecule `CONCc1cc(-n2c(=O)cc(C(F)(F)F)n(C)c2=O)ccc1Cl` has a melting point of 83 to 85 °C.
Work on `O=C(NCCCC[C@H](O)C(=O)O)OCc1ccccc1` yielded a melting point of 79 to 81 °C.
Molecule `Cc1ccc2c(NCc3ccc(NC(=O)C4CCN(Cc5ccccc5)CC4)cc3)nc(N3CCCC3)nc2c1` has a melting point of 96 °C.
Work on `Cn1cnc(Cc2cccc3c2OC(C)(C)OC3)c1` yielded a melting point of 67 to 72 °C.
`NC(=O)c1cnc(N)c([N+](=O)[O-])c1` showed a melting point of 289 to 290 °C.
Molecule `O=C1c2c(OCc3ccccc3)c(OCc3ccccc3)cc(OCc3ccccc3)c2-c2nn(CCNCCO)c3ccc(NCCNCCO)c1c23` has a melting point of 186 to 188 °C.
`COC(=O)C(C(=O)OC)=C(/C=C/Cl)CCl` showed a melting point of 56 °C.
In the case of `Clc1c(Br)cncc1Br`, the melting point is reported as 101 to 103 °C.
For `O=C(O)C1CCCCC1C(=O)CCSSCCC(=O)C1CCCCC1C(=O)O` (stereo not given), the melting point was 167 to 170 °C.
For `N#Cc1cccc(C2C3=C(CCS3)NC3=C2SCC3)c1`, the melting point was 248 °C.
`CCC(=O)c1[nH]c(=O)[nH]c1CC` gave a melting point of 212 to 213 °C.
Work on `O=C1CCC(=O)C1C(=O)CCc1ccc(Cl)c(Cl)c1` yielded a melting point of 126 to 127 °C.
For `CCOC(=O)CC(NC(=O)c1ccccc1)C(=O)c1ccsc1` (stereo not given), the melting point was 62 to 63 °C.
For `CC(C)Cc1nn(C)c(=O)c2c(SCCCO)n(Cc3ccccc3)cc12`, the melting point was 91 to 92 °C.
For `COc1ccc(Cn2c3ccccc3c3c(N)c(C(=O)O)c(C)nc32)cc1`, the melting point was 206 to 208 °C.
`CCc1ccc2c(c1)C=Cc1cc(C)ccc1C2c1cn(-c2ccnc(N3CCCC3C(=O)O)n2)c(=O)[nH]c1=O` (stereo not given) showed a melting point of 185 °C.
Work on `N#CNc1ccc2c3c(cccc13)CC2` yielded a melting point of 163 to 165 °C.
Work on `CCCCCCCCCCCCCCN(c1ccccc1)c1snnc1C(N)=O` yielded a melting point of 79 to 81 °C.
In the case of `CCOC(OCC)c1ncn(CCC(O)(c2ccc(F)cc2F)n2cncn2)n1` (stereo not given), the melting point is reported as 85 to 87 °C.
In the case of `CCOc1cccc(N2CCN(CCCCOc3ccc4c(n3)NC(=O)CC4)CC2)c1Cl`, the melting point is reported as 110 to 112 °C.
For `COc1ccc(/C=C/C(=O)Nc2ccccc2C(=O)NCc2cn(CC(=O)Nc3ccccc3)nn2)cc1OC`, the melting point was 189 to 191 °C.
`O=C1NCCc2[nH]c3c(OCc4ccccc4)cccc3c21` gave a melting point of 182 to 185 °C.
In the case of `OCc1cc2cc(-c3ccsc3)ccc2o1`, the melting point is reported as 122 to 124 °C.
`C(=Cc1ccc(-c2cc3cc(-c4ccccc4)ccc3o2)cc1)c1ccc(-c2ccccc2)cc1` showed a melting point of 356 to 358 °C.
With `COC(=O)C(C)(C)Cc1c(SC(C)(C)C)c2cc(OCc3cnccn3)ccc2n1Cc1ccc(Cl)cc1` the melting point was 141 to 142 °C.
For `OC(CCc1cccnc1)COc1ccc(C=Cc2ccccc2)cc1` (stereo not given), the melting point was 110 to 111 °C.
`CCCCCCCCCCCCn1nnnc1C(C(=O)Nc1c(C(C)C)cccc1C(C)C)c1ccccc1` (stereo not given) gave a melting point of 113 to 115 °C.
For `O=[N+]([O-])c1ccc(F)c(-c2ccsc2)c1`, the melting point was 65 °C.
Work on `CC1(C(=O)N2CCOCC2)COC(c2nc(-c3ccc(F)cc3)c(-c3ccnc(S(C)(=O)=O)n3)[nH]2)OC1` (stereo not given) yielded a melting point of 264 to 266 °C.
For `Cn1cc(-c2cc3cccnc3[nH]2)c2cc(OCC(=O)O)ccc21`, the melting point was greater than 300 °C.
Molecule `CNC(=O)C1SCSC(=NO)S1` (stereo not given) has a melting point of 129 to 130 °C.
`CN1CCC(N(CCN2CCCC2)C(=O)c2ccc(Nc3nccc(Nc4ccc(C(F)(F)F)cc4)n3)cc2)CC1` showed a melting point of 115 to 120 °C.
Molecule `CC(C)C1(C)Cc2cc(OCC#N)c(Cl)c(Cl)c2C1=O` (stereo not given) has a melting point of 133 °C.
For `COc1cc(C)nc(CNC(=O)NS(=O)(=O)c2ccccc2S(=O)(=O)N(C)C)n1`, the melting point was 153 to 156 °C.
With `CC(C)(C)OC(=O)N1CCN(c2ccc(S(=O)(=O)c3ccccc3)c([N+](=O)[O-])c2)CC1` the melting point was 190 to 191 °C.
Work on `O=C(C=Cc1ccc(Cl)c(C(F)(F)F)c1)NN1CC(=O)NC1=O` yielded a melting point of 270 to 273 °C.
For `C=CCSc1ccc(Oc2ccccc2C)nn1`, the melting point was 78 to 80 °C.
For `O=C(c1cccc(-c2cc3ccccc3n2S(=O)(=O)c2ccccc2)c1)c1cc2ccccc2n1S(=O)(=O)c1ccccc1`, the melting point was 189 to 190 °C.
In the case of `COC(=O)c1ccccc1C1=NC(C)(C(C)C)C(=O)N1O` (stereo not given), the melting point is reported as 146 to 150 °C.
With `CCc1ccnc(C(=O)c2[nH]c3cc(Cl)ccc3c2CC(=O)O)c1Cl` the melting point was 158 °C.
Molecule `CCCCCS(=O)(=O)NC(=O)/C=C/c1ccc(C)n1Cc1ccc(Cl)cc1Cl` has a melting point of 189 to 190 °C.
Work on `CC1=C(C(=O)OC(C)C)C(c2ccccc2F)n2nncc2N1` (stereo not given) yielded a melting point of 137 to 139 °C.
Work on `Cc1nn(-c2cccnc2)cc1NC1CC1` yielded a melting point of 104 to 107 °C.
For `COc1ccc(CCC(=O)CC(=O)CCc2ccc(OC)cc2)cc1`, the melting point was 73.5 to 76.2 °C.
`Cc1cccc(C#Cc2cccc(Br)c2)n1` showed a melting point of 60 to 61 °C.
With `CC(C(=O)O)c1ccc(N)cc1` (stereo not given) the melting point was 125 to 129 °C.
`COc1ccc(Cl)c(Oc2c(CO)nc(N3CCOCC3)nc2NS(=O)(=O)c2ccc(C(C)(C)C)cc2)c1` gave a melting point of 103 °C.
`COc1cnc(CSc2nc3cc4c(cc3[nH]2)OC(F)(F)O4)c(C)c1OC` showed a melting point of 160 to 161 °C.
`COc1cc([N+](=O)[O-])c2nc(N)ccc2c1` gave a melting point of 195 to 197 °C.
In the case of `Cc1nc2c(Cl)c(NC(=O)c3ccc(-c4ccccc4)cc3)ccc2s1`, the melting point is reported as 168 to 169 °C.
`CCCCN(CCCC)CCOc1ccc(C(=O)c2c(CC)cc3ccccn23)cc1` showed a melting point of 116 °C.
`COc1cccc2cc(C(=O)O)c(C(=O)O)cc12` gave a melting point of 210 to 212 °C.
`CNC(=O)/C(=N/OC)c1ccccc1Oc1ccc(C)c(C)c1` showed a melting point of 98 to 100 °C.
Molecule `Cc1cc(N)c(C(=O)Cc2nnnn2C)cc1C` has a melting point of 162 to 165 °C.
Molecule `Cc1ccc(-c2c(-c3ccc(S(C)(=O)=O)cc3)cnn(CC(F)(F)F)c2=O)cc1` has a melting point of 154 to 156 °C.
In the case of `Oc1ccc(O)c2[nH]c(-c3ccc(Cl)cc3)nc12`, the melting point is reported as greater than 300 °C.
For `Nc1ccccc1C(=O)C1CCC1`, the melting point was 55 °C.
Work on `CC(CCCC(C)(C)C)C1CCC2C3C(=O)C=C4CC(O)CCC4(C)C3CCC12C` (stereo not given) yielded a melting point of 176 to 178 °C.
For `O=C(NC1C2CC3CC(C2)CC1C3)C1CCCCN1Cc1ccccn1` (stereo not given), the melting point was 126 to 127 °C.
With `COC(=O)c1sc(C(C)(C)C)cc1NC(=O)Nc1ccc(C)cc1` the melting point was 109 to 111 °C.
For `CCNC=C(C(=O)C=Cc1ccc(N(C)C)cc1)C(=O)OC`, the melting point was 129 to 130 °C.
With `COc1cccc(Sc2c(O)c3c(Cl)cc(Cl)cc3[nH]c2=O)c1` the melting point was 269 to 270 °C.
`CCC(=O)OC1(C(=O)CCl)C(C)CC2C3CCC4CC(=O)CCC4(C)C3(Cl)C(Cl)CC21C` (stereo not given) gave a melting point of 164 °C.
With `COC(=O)c1ccc(SC#N)c([N+](=O)[O-])c1` the melting point was 93 to 96 °C.
`COc1cc2c(cc1OC)/C(=N/OCc1ccc3nonc3c1)CCC2` gave a melting point of 139 to 140 °C.
For `CC(C)(C)c1ccc(S(=O)(=O)N2CCCC2=O)cc1`, the melting point was 131 to 133 °C.
Molecule `O=C(Nc1cc2nc(-c3ccc(C(=O)C45CC6CC(CC(C6)C4)C5)cc3)[nH]c2cn1)C12CC3CC(CC(C3)C1)C2` has a melting point of 265 °C.
Molecule `CCOc1ccc(C(=O)c2ccc(OC)c(Cl)c2Cl)c(F)c1` has a melting point of 94 to 96 °C.
`COc1ccc(S(=O)(=O)N2c3cc(Br)sc3-c3ccccc3[C@H]2C)cc1` showed a melting point of 136 to 138 °C.
Molecule `CON=CC1CCCN(C(=O)Oc2ccccc2)C1` (stereo not given) has a melting point of 40 to 41 °C.
In the case of `CCOc1ccccc1N1CCN(CCC2OCCc3cc(C(N)=O)ccc32)CC1` (stereo not given), the melting point is reported as 208 to 210 °C.
`Cc1ccc(-c2nn(-c3cccc(C(=O)O)c3)c(N)c2C(N)=O)cc1` gave a melting point of 232 to 235 °C.
Molecule `CC(=O)N1CCc2cc(S(=O)(=O)n3c(CCC(=O)O)cc4cc(Cl)ccc43)ccc21` has a melting point of 220 to 223 °C.

From a melting point compilation (Tetko et al.; mined from patent text by program, amines drawn as free bases though some values may be those of a salt)
